Assay results: ChEMBL document CHEMBL1145006 (J Med Chem, 2003)
Starred links: 1 amine or outer side, 2 acyl side, 3 side chain; linkers in the order of their positions; H or OH if unused. Positions of bridges follow the written chain, without caps; N, C: chain ends. Non-standard residues stand in square brackets, D forms with d. Residues, ends and D or L forms follow the SMILES beside them. Groups on a side chain read outwards from the residue. *: point of attachment. Ethylenediamine = C(CN[*:2])N[*:1]; Hyp = O=C(O)[C@@H]1C[C@@H](O)CN1; CO = O=C([*:1])[*:2]; Bn = c1ccc(C*)cc1

How the values were obtained:
Format in all cases: cell-based
[1] = molecular target: Somatostatin receptor type 5 (Homo sapiens, UniProt P35346); experiment: Binding affinity towards human Somatostatin receptor type 5 (sst5) using Tyr11-[125I]-SRIF as radioligand was determined in COS cell
Somatostatin receptor type 5, sequence (P35346 whole entry): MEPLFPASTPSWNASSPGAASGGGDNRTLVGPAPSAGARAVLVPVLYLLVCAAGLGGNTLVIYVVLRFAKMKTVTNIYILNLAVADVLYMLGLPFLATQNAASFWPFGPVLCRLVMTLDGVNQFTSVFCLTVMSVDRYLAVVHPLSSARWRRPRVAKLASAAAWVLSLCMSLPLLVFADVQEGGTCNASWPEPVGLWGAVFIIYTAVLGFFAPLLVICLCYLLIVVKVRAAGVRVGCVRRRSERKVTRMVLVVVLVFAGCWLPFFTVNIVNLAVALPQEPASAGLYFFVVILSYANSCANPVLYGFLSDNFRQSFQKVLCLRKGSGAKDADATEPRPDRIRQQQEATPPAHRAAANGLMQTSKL

[2] = molecular target: Somatostatin receptor type 1 (Homo sapiens, UniProt P30872); experiment: Binding affinity towards human Somatostatin receptor type 1 (sst1) using Tyr11-[125I]-SRIF as radioligand was determined in CHO cells
Somatostatin receptor type 1, sequence (P30872 whole entry): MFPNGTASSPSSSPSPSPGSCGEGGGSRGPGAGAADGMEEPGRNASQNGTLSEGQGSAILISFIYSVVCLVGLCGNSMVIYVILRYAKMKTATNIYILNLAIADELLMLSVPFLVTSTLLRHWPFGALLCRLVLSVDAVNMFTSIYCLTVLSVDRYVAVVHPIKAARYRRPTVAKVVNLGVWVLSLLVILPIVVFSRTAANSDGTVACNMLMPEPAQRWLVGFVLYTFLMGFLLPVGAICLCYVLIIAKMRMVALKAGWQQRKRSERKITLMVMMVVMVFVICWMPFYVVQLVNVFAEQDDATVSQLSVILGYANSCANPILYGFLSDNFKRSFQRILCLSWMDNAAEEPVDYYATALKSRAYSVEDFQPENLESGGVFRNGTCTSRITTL

[3] = molecular target: Somatostatin receptor type 3 (Homo sapiens, UniProt P32745); experiment: Binding affinity towards human Somatostatin receptor type 3 (sst3) using Tyr11-[125I]-SRIF as radioligand was determined in CHO cells
Somatostatin receptor type 3, sequence (P32745 whole entry): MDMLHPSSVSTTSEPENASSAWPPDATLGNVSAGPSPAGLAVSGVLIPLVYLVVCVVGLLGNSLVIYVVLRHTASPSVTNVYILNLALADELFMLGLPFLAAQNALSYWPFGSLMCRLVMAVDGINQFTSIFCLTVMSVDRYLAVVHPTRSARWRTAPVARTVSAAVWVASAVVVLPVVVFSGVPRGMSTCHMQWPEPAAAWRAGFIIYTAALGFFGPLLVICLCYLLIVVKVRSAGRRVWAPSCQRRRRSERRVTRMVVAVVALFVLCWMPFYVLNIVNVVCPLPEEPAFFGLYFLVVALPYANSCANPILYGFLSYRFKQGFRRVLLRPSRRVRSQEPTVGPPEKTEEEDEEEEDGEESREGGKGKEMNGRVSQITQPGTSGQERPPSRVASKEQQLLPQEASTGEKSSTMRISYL

[4] = molecular target: Somatostatin receptor type 4 (Homo sapiens, UniProt P31391); experiment: Binding affinity towards human Somatostatin receptor type 4 (sst4) using Tyr11-[125I]-SRIF as radioligand was determined in CHO cells; details: for Log Ki: cho
Somatostatin receptor type 4, sequence (P31391 whole entry): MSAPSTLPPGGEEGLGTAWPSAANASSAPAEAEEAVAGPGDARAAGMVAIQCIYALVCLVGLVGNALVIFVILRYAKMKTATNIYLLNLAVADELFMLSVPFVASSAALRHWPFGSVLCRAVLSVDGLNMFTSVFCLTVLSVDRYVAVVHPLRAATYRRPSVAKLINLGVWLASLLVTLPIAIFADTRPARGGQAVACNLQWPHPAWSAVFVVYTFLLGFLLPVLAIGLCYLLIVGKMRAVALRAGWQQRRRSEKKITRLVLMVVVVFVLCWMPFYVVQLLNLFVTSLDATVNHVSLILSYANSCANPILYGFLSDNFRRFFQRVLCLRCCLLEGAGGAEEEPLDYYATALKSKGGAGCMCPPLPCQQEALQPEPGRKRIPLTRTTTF

[5] = molecular target: Somatostatin receptor type 2 (Homo sapiens, UniProt P30874); experiment: Binding affinity towards human Somatostatin receptor type 2 (sst2) using Tyr11-[125I]-SRIF as radioligand was determined in CHO cells
Somatostatin receptor type 2, sequence (P30874 whole entry): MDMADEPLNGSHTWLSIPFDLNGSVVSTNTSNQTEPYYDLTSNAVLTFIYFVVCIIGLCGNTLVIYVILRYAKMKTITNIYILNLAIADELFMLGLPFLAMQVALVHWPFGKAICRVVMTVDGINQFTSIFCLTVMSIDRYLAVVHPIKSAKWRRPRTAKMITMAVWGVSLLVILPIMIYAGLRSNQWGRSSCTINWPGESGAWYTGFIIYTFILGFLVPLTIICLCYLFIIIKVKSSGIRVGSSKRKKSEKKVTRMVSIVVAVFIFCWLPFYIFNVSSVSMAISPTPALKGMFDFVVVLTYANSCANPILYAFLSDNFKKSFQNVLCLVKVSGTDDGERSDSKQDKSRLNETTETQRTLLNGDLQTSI

Row | SMILES | Ki [1] [nM] | Ki [2] [nM] | Ki [3] [nM] | Log Ki [4] | Ki [5] [nM] | Ki [4] [nM]
1 | C[C@H](N)C(=O)NCC(=O)N[C@H]1CSSC[C@@H](C(N)=O)NC(=O)[C@H](CO)NC(=O)[C@H](C)NC(=O)[C@H](Cc2ccccc2)NC(=O)[C@H]([C@@H](C)O)NC(=O)[C@H](CCCCN)NC(=O)[C@H](Cc2c[nH]c3ccccc23)NC(=O)[C@H](Cc2ccccc2)NC(=O)[C@H](Cc2ccccc2)NC(=O)[C@H](CC(N)=O)NC(=O)[C@H](CCCCN)NC1=O (H-AGCKNFFWKTFASC-NH2; disulfide 3-14) | 0.398 | 0.501 | 0.631 | > -9.2 | 1.26 | –
2 | C[C@H](N)C(=O)NCC(=O)N[C@H]1CSSC[C@@H](C(N)=O)NC(=O)[C@H](CO)NC(=O)[C@H]([C@@H](C)O)NC(=O)[C@H](Cc2ccccc2)NC(=O)[C@H]([C@@H](C)O)NC(=O)[C@H](CCCCN)NC(=O)[C@H](Cc2c[nH]c3ccccc23)NC(=O)[C@H](Cc2ccccc2)NC(=O)[C@H](C)NC(=O)[C@H](CC(N)=O)NC(=O)[C@H](CCCCN)NC1=O (H-AGCKNAFWKTFTSC-NH2; disulfide 3-14) | 100 | 126 | 200 | > -7.1 | 20 | –
3 | C[C@H](N)C(=O)N[C@@H](C)C(=O)N[C@H]1CSSC[C@@H](C(N)=O)NC(=O)[C@H](CO)NC(=O)[C@H]([C@@H](C)O)NC(=O)[C@H](Cc2ccccc2)NC(=O)[C@H]([C@@H](C)O)NC(=O)[C@H](CCCCN)NC(=O)[C@H](Cc2c[nH]c3ccccc23)NC(=O)[C@H](Cc2ccccc2)NC(=O)[C@H](Cc2ccccc2)NC(=O)[C@H](CC(N)=O)NC(=O)[C@H](CCCCN)NC1=O (H-AACKNFFWKTFTSC-NH2; disulfide 3-14) | 1.26 | 0.2 | 0.794 | > -9.7 | 0.158 | –
4 | CN(C)CCNC(=O)O[C@@H]1C[C@H]2C(=O)N[C@@H](Cc3ccccc3)C(=O)N[C@H](Cc3c[nH]c4ccccc34)C(=O)N[C@@H](CCCCN)C(=O)N[C@@H](Cc3ccc(OCc4ccccc4)cc3)C(=O)N[C@@H](Cc3ccccc3)C(=O)N2C1 | 0.1 | 1.58 | 0.316 | > -7 | 0.501 | –
5 | C[C@H](N)C(=O)NCC(=O)N[C@H]1CSSC[C@@H](C(N)=O)NC(=O)[C@H](CO)NC(=O)[C@H]([C@@H](C)O)NC(=O)[C@H](Cc2ccccc2)NC(=O)[C@H]([C@@H](C)O)NC(=O)[C@H](CCCCN)NC(=O)[C@H](Cc2c[nH]c3ccccc23)NC(=O)[C@H](C)NC(=O)[C@H](Cc2ccccc2)NC(=O)[C@H](CC(N)=O)NC(=O)[C@H](CCCCN)NC1=O (H-AGCKNFAWKTFTSC-NH2; disulfide 3-14) | 79.4 | 20 | 25.1 | > -8.7 | 20 | –
6 | C[C@H](N)C(=O)NCC(=O)N[C@H]1CSSC[C@@H](C(N)=O)NC(=O)[C@H](CO)NC(=O)[C@H]([C@@H](C)O)NC(=O)[C@H](Cc2ccccc2)NC(=O)[C@H]([C@@H](C)O)NC(=O)[C@H](CCCCN)NC(=O)[C@H](Cc2c[nH]c3ccccc23)NC(=O)[C@H](Cc2ccccc2)NC(=O)[C@H](Cc2ccccc2)NC(=O)[C@H](C)NC(=O)[C@H](CCCCN)NC1=O (H-AGCKAFFWKTFTSC-NH2; disulfide 3-14) | 0.158 | 0.251 | 0.631 | > -9.7 | 0.126 | –
7 | CC(C)[C@@H]1NC(=O)[C@H](CCCCN)NC(=O)[C@@H](Cc2c[nH]c3ccccc23)NC(=O)[C@H](Cc2ccc(O)cc2)NC(=O)[C@H](C)N(C)C(=O)[C@H](Cc2ccccc2)NC1=O [SEGLITIDE] | 12.6 | > 1000 | 31.6 | – | – | –
8 | C[C@@H](O)[C@@H]1NC(=O)[C@H](CCCCN)NC(=O)[C@@H](Cc2c[nH]c3ccccc23)NC(=O)[C@H](Cc2ccccc2)NC(=O)[C@@H]2CCCN2C(=O)[C@H](Cc2ccccc2)NC1=O | – | – | – | > -7 | – | –
9 | NCCCCCNC(=O)O[C@@H]1C[C@H]2C(=O)N[C@@H](Cc3ccccc3)C(=O)N[C@H](Cc3c[nH]c4ccccc34)C(=O)N[C@@H](CCCCN)C(=O)N[C@@H](Cc3ccc(OCc4ccccc4)cc3)C(=O)N[C@@H](Cc3ccccc3)C(=O)N2C1 | 0.631 | 10 | 2 | – | 3.16 | 631
10 | NCCCC[C@@H]1NC(=O)[C@@H](Cc2c[nH]c3ccccc23)NC(=O)[C@H](Cc2ccccc2)NC(=O)[C@@H]2C[C@@H](O)CN2C(=O)[C@H](Cc2ccccc2)NC(=O)[C@H](Cc2ccc(OCc3ccccc3)cc2)NC1=O (cyclo(F[Hyp]F[dW]KY(Bn))) | 0.316 | 63.1 | 1.58 | – | 0.794 | 316
11 | NCCCC[C@@H]1NC(=O)[C@@H](Cc2c[nH]c3ccccc23)NC(=O)[C@H](CCCN=C(N)N)NC(=O)[C@@H]2C[C@@H](OC(=O)NCCN)CN2C(=O)[C@H](Cc2ccccc2)NC(=O)[C@H](Cc2ccc(OCc3ccccc3)cc2)NC1=O | 0.398 | 6.31 | 20 | – | 10 | 316
12 | NCCCC[C@@H]1NC(=O)[C@@H](Cc2c[nH]c3ccccc23)NC(=O)[C@H](Cc2c[nH]cn2)NC(=O)[C@@H]2C[C@@H](OC(=O)NCCN)CN2C(=O)[C@H](Cc2ccccc2)NC(=O)[C@H](Cc2ccc(OCc3ccccc3)cc2)NC1=O | 3.16 | 3.98 | 0.794 | > -7 | 0.794 | –
13 | C[C@H](N)C(=O)NCC(=O)N[C@H]1CSSC[C@@H](C(N)=O)NC(=O)[C@H](CO)NC(=O)[C@H]([C@@H](C)O)NC(=O)[C@H](Cc2ccccc2)NC(=O)[C@H]([C@@H](C)O)NC(=O)[C@H](C)NC(=O)[C@H](Cc2c[nH]c3ccccc23)NC(=O)[C@H](Cc2ccccc2)NC(=O)[C@H](Cc2ccccc2)NC(=O)[C@H](CC(N)=O)NC(=O)[C@H](CCCCN)NC1=O (H-AGCKNFFWATFTSC-NH2; disulfide 3-14) | 100 | 1000 | 1000 | – | 1000 | > 1000
14 | NCCCC[C@@H]1NC(=O)[C@@H](Cc2c[nH]c3ccccc23)NC(=O)[C@H](Cc2ccccc2)NC(=O)[C@@H]2C[C@@H](OC(=O)NCCN)CN2C(=O)[C@H](Cc2ccccc2)NC(=O)[C@H](Cc2ccc(OCc3ccccc3)cc2)NC1=O (cyclo(F[Hyp]([CO-Ethylenediamine])F[dW]KY(Bn))) | 0.398 | 3.98 | 0.794 | – | 2 | 501
15 | C[C@H](N)C(=O)NCC(=O)N[C@H]1CSSC[C@@H](C(N)=O)NC(=O)[C@H](CO)NC(=O)[C@H]([C@@H](C)O)NC(=O)[C@H](Cc2ccccc2)NC(=O)[C@H]([C@@H](C)O)NC(=O)[C@H](CCCCN)NC(=O)[C@H](C)NC(=O)[C@H](Cc2ccccc2)NC(=O)[C@H](Cc2ccccc2)NC(=O)[C@H](CC(N)=O)NC(=O)[C@H](CCCCN)NC1=O (H-AGCKNFFAKTFTSC-NH2; disulfide 3-14) | 79.4 | 1000 | 1000 | – | 1000 | > 1000
16 | C[C@H](N)C(=O)NCC(=O)N[C@H]1CSSC[C@@H](C(N)=O)NC(=O)[C@H](CO)NC(=O)[C@H]([C@@H](C)O)NC(=O)[C@H](Cc2ccccc2)NC(=O)[C@H]([C@@H](C)O)NC(=O)[C@H](CCCCN)NC(=O)[C@H](Cc2c[nH]c3ccccc23)NC(=O)[C@H](Cc2ccccc2)NC(=O)[C@H](Cc2ccccc2)NC(=O)[C@H](CC(N)=O)NC(=O)[C@H](C)NC1=O (H-AGCANFFWKTFTSC-NH2; disulfide 3-14) | 1 | 0.794 | 2.51 | > -9.5 | 0.501 | –
17 | C[C@H](N)C(=O)NCC(=O)N[C@H]1CSSC[C@@H](C(N)=O)NC(=O)[C@H](CO)NC(=O)[C@H]([C@@H](C)O)NC(=O)[C@H](C)NC(=O)[C@H]([C@@H](C)O)NC(=O)[C@H](CCCCN)NC(=O)[C@H](Cc2c[nH]c3ccccc23)NC(=O)[C@H](Cc2ccccc2)NC(=O)[C@H](Cc2ccccc2)NC(=O)[C@H](CC(N)=O)NC(=O)[C@H](CCCCN)NC1=O (H-AGCKNFFWKTATSC-NH2; disulfide 3-14) | 6.31 | 0.631 | 7.94 | > -9 | 6.31 | –
18 | CC(C)[C@@H]1NC(=O)[C@H](CCCCN)NC(=O)[C@@H](Cc2c[nH]c3ccccc23)NC(=O)[C@H](Cc2ccc(O)cc2)NC(=O)[C@@H](NC(=O)[C@H](N)Cc2ccccc2)CSSC[C@@H](C(=O)N[C@@H](Cc2c[nH]c3ccccc23)C(N)=O)NC1=O [VAPREOTIDE] (H-[dF]CY[dW]KVCW-NH2; disulfide 2-7) | – | 158 | 20 | – | 0.0794 | 158
19 | CC(C)[C@@H]1NC(=O)[C@H](CCCCN)NC(=O)[C@@H](Cc2c[nH]c3ccccc23)NC(=O)[C@H](Cc2ccc(O)cc2)NC(=O)[C@@H](NC(=O)[C@H](N)Cc2ccc3ccccc3c2)CSSC[C@@H](C(=O)N[C@H](C(N)=O)[C@@H](C)O)NC1=O [LANREOTIDE] | – | 501 | – | – | – | –
20 | C[C@H](N)C(=O)NCC(=O)N[C@H]1CSSC[C@@H](C(N)=O)NC(=O)[C@H](C)NC(=O)[C@H]([C@@H](C)O)NC(=O)[C@H](Cc2ccccc2)NC(=O)[C@H]([C@@H](C)O)NC(=O)[C@H](CCCCN)NC(=O)[C@H](Cc2c[nH]c3ccccc23)NC(=O)[C@H](Cc2ccccc2)NC(=O)[C@H](Cc2ccccc2)NC(=O)[C@H](CC(N)=O)NC(=O)[C@H](CCCCN)NC1=O (H-AGCKNFFWKTFTAC-NH2; disulfide 3-14) | 0.794 | 0.158 | 0.631 | > -10 | 0.0794 | –
21 | C[C@@H](O)[C@@H]1NC(=O)[C@H](CCCCN)NC(=O)[C@@H](Cc2c[nH]c3ccccc23)NC(=O)[C@H](Cc2ccccc2)NC(=O)[C@@H]2C[C@@H](O)CN2C(=O)[C@H](Cc2ccccc2)NC1=O (cyclo(F[Hyp]F[dW]KT)) | > 1000 | > 1000 | 200 | – | 0.2 | > 1000
